Experimental data from patent US9796907B2, “Invert emulsion gravel pack fluid and method” (Halliburton Energy Services, Inc., priority 2013, dated 2017).

Test system: marine juvenile fish Cyprinodont varieties
Assay: Ecotoxicity to marine juvenile fish
Format: in vivo
Text: In addition, the fluid of the disclosure should have an acceptable health, safety, and environmental profile. The dimer diamine (or fatty acid dimer diamine) and polyurea components comprising the suspension agent are environmentally compatible.

CCCCCCCCCC(CCCCCCCCN)C(CCCCCCCC)CCCCCCCCCN (stereo not shown) [fatty acid dimer diamine, C36 fatty dimer diamine]
ecotoxicity to marine juvenile fish: low ecotoxicity
